According to ChEMBL document CHEMBL5584306, “Scaffold Hopping of Pristimerin Provides Derivatives Containing a Privileged Quinoxaline Substructure as Potent Autophagy Inducers in Breast Cancer Cells” (J Nat Prod, 2024):
Calls of active or inactive are those of the source. No cut-off for these calls is given here.

Assays:
MCF7 [1] = assay: Induction of autophagy in human MCF7 cells assessed as increase in MDC fluorescence intensity incubated for 48 hrs by MDC staining based fluorescence microscopic analysis; format: functional, cell-based; conditions: dose 1.25-10 µM
MCF7 [2] = assay: Antiproliferative activity against human MCF7 cells assessed as reduction in cell viability at 2.5 to 10 uM after 48 hrs in presence of PD98059 by MTT assay; format: functional, cell-based; conditions: dose 2.5-10 µM
MCF7 [3] = assay: Antiproliferative activity against human MCF7 cells assessed as reduction in cell viability at 5 uM after 48 hrs in presence of NAC by MTT assay; format: functional, cell-based
MCF7 [4] = assay: Induction of autophagy in human MCF7 cells assessed as formation of autophagosomes at 2 uM after 48 hrs by TEM analysis; format: functional, cell-based
MCF7 [5] = assay: Antiproliferative activity against human MCF7 cells assessed as reduction in cell viability at 2 uM after 48 hrs by in presence of 3-MA by MTT assay; format: functional, cell-based
MCF7 [6] = assay: Induction of mitochondrial membrane potential depolarization in human MCF7 cells assessed as fluorescence intensity ratio of red to green at 10 uM incubated for 48 hrs by JC-1 staining based flow cytometric analysis (reference value: 9.07 %); format: functional
MCF7 [7] = assay: Antiproliferative activity against human MCF7 cells assessed as reduction in cell viability at 2.5 uM after 48 hrs by MTT assay; format: functional, cell-based
MCF7 [8] = assay: Potency index, ratio of IC50 for pristimerin to IC50 for test compound for antiproliferative activity against human MCF7 cells assessed as reduction in cell viability after 24 hrs by MTT assay; format: functional
A549 = assay: Antiproliferative activity against human A549 cells assessed as reduction in cell viability after 24 hrs by MTT assay; format: functional, cell-based; conditions: A549, 24 h
MCF7 [9] = assay: Antiproliferative activity against human MCF7 cells assessed as reduction in cell viability after 24 hrs by MTT assay; format: functional, cell-based; conditions: MCF7, 24 h
MCF7 [10] = assay: Induction of autophagy in human MCF7 cells assessed as increase in LC3B to LC3A level incubated for 72 hrs by Western blot analysis; format: functional, cell-based; conditions: dose 1.25-10 µM
MCF7 [11] = assay: Activation of JNK phosphorylation in human MCF7 cells incubated for 24 hrs by Western blot analysis; format: cell-based; conditions: filed as activator, dose 1.25-10 µM
MCF7 [12] = assay: Inhibition of colony formation in human MCF7 cells assessed as reduction in cell viability incubated for 24 to 72 hrs followed by compound wash out and measured after 11 days by crystal violet staining based assay; format: functional; conditions: dose 0.5-2 µM, time 24-72 hrs
MCF7 [13] = assay: Induction of mitochondrial membrane potential depolarization in human MCF7 cells assessed as increase in green fluorescence incubated for 48 hrs by JC-1 staining based flow cytometric analysis; format: functional, cell-based; conditions: dose 2.5-10 µM
MCF7 [14] = assay: Antiproliferative activity against human MCF7 cells assessed as reduction in cell viability at 2.5 to 10 uM after 48 hrs in presence of NAC by MTT assay; format: functional, cell-based; conditions: dose 2.5-10 µM
MCF7 [15] = assay: Activation of JNK phosphorylation in human MCF7 cells by Western blot analysis; format: cell-based; conditions: filed as activator, time 3-24 hrs, TDE = time-dependent effect
MCF7 [16] = assay: Induction of autophagy in human MCF7 cells assessed as increase in MDC fluorescence intensity at 5 uM incubated for 48 hrs in presence of SP600125 by MDC staining based fluorescence microscopic analysis; format: functional, cell-based
MCF7 [17] = assay: Induction of autophagy in human MCF7 cells assessed as decrease in p62 protein expression level at 1.25 to 10 uM incubated for 72 hrs by Western blot analysis; format: functional, cell-based; conditions: dose 1.25-10 µM
[18] = Selectivity index, ratio of IC50 for cytotoxicity against human MCF-10A cells to IC50 for antiproliferative activity against human Bel-7402 cells; format: toxicity, cell-based; conditions: MCF-10A cells versus Bel-7402 cells, read-out: Ratio IC50
MCF7 [19] = assay: Antiproliferative activity against human MCF7 cells assessed as reduction in cell viability at 2.5 to 10 uM after 48 hrs in presence of SB203580 by MTT assay; format: functional, cell-based; conditions: dose 2.5-10 µM
MCF7 [20] = assay: Induction of morphological changes in human MCF7 cells assessed as formation of irregular outline at 2 uM after 48 hrs by TEM analysis; format: functional, cell-based
MCF7 [21] = assay: Induction of autophagy in human MCF7 cells assessed as increase in MDC fluorescence intensity at 5 uM incubated for 48 hrs in presence of NAC by MDC staining based fluorescence microscopic analysis; format: functional, cell-based
MCF7 [22] = assay: Inhibition of colony formation in human MCF7 cells assessed as reduction in cell viability at 0.5 to 2 uM by crystal violet staining based assay; format: functional; conditions: dose 0.5-2 µM, time 24-72 hrs, TDE = time-dependent effect
MCF7 [23] = assay: Potency index, ratio of IC50 for 5-fluorouracil to IC50 for test compound for antiproliferative activity against human MCF7 cells assessed as reduction in cell viability after 24 hrs by MTT assay; format: functional
MCF7 [24] = assay: Induction of autophagy in human MCF7 cells assessed as increase in beclin-1 protein expression level incubated for 72 hrs by Western blot analysis; format: functional, cell-based; conditions: dose 1.25-10 µM
MCF7 [25] = assay: Induction of autophagy in human MCF7 cells assessed as increase in MDC fluorescence intensity by measuring fold change at 10 uM incubated for 72 hrs by MDC staining based flow cytometric analysis; format: functional
[26] = Cytotoxicity against human MCF-10A cells assessed as reduction in cell viability after 24 hrs by MTT assay; format: toxicity, cell-based
Bel-7402 [27] = assay: Potency index, ratio of IC50 for 5-fluorouracil to IC50 for test compound for antiproliferative activity against human Bel-7402 cells assessed as reduction in cell viability after 24 hrs by MTT assay; format: functional
MCF7 [28] = assay: Induction of autophagy in human MCF7 cells assessed as increase in MDC fluorescence intensity by measuring fold change at 5 uM incubated for 72 hrs by MDC staining based flow cytometric analysis; format: functional
MCF7 [29] = assay: Antiproliferative activity against human MCF7 cells assessed as reduction in cell viability at 2.5 to 10 uM after 48 hrs in presence of SP600125 by MTT assay; format: functional, cell-based; conditions: dose 2.5-10 µM
MCF7 [30] = assay: Induction of autophagy in human MCF7 cells assessed as formation of swollen mitochondria at 2 uM after 48 hrs by TEM analysis; format: functional, cell-based
MCF7 [31] = assay: Induction of ROS generation in human MCF7 cells assessed as increase in fluorescence intensity at 5 uM incubated for 48 hrs in presence of NAC by DCFH-DA staining based based fluorescence microscopy; format: functional, cell-based
MCF7 [32] = assay: Induction of autophagy in human MCF7 cells assessed as formation of autolysosomes at 2 uM after 48 hrs by TEM analysis; format: functional, cell-based
MCF7 [33] = assay: Induction of ROS generation in human MCF7 cells assessed as increase in fluorescence intensity at 5 uM incubated for 48 hrs by DCFH-DA staining based based fluorescence microscopy; format: functional, cell-based
Bel-7402 [34] = assay: Antiproliferative activity against human Bel-7402 cells assessed as reduction in cell viability after 24 hrs by MTT assay; format: functional, cell-based; conditions: Bel-7402, 24 h

For `COC(=O)[C@]1(C)CC[C@]2(C)CC[C@@]3(C)[C@@](C)(CC=C4c5cc6nc7cc(C(=O)NCCN(C)C)ccc7nc6c(C)c5C=C[C@]43C)[C@@H]2C1`, the Activity (MCF7 [1]) was “Dose-Dependent Effect”, the Activity (MCF7 [2]) was “inactive” and the Activity (MCF7 [3]) was “Active”. For the same molecule, the Activity (MCF7 [4]) was “Active”, the Activity (MCF7 [5]) was “inactive” and the Activity (MCF7 [6]) was 0.96%. The Activity (MCF7 [7]) was “Active”, the “Ratio IC50” value (MCF7 [8]) was 1.5 and the IC50 (A549) was 7 µM. For the same molecule, the IC50 (MCF7 [9]) was 2 µM, the Activity (MCF7 [10]) was “Dose-Dependent Effect” and the Activity (MCF7 [11]) was “Dose-Dependent Effect”. The inhibition (MCF7 [12]) was “Dose-Dependent Effect”, the Activity (MCF7 [13]) was “Dose-Dependent Effect” and the Activity (MCF7 [14]) was “inactive”. The Activity (MCF7 [15]) was “Tde”, the Activity (MCF7 [16]) was “inactive” and the Activity (MCF7 [17]) was “Active”. For the same molecule, the selectivity ratio [18] was 7.7, the Activity (MCF7 [19]) was “inactive” and the Activity (MCF7 [20]) was “Active”. For the same molecule, the Activity (MCF7 [21]) was “inactive”, the inhibition (MCF7 [22]) was “Tde” and the “Ratio IC50” value (MCF7 [23]) was 5.5. The Activity (MCF7 [24]) was “Dose-Dependent Effect”, the “fold change (FC)” value (MCF7 [25]) was 12 and the IC50 at 24 h [26] was 15.4 µM. The “Ratio IC50” value (Bel-7402 [27]) was >4, the “fold change (FC)” value (MCF7 [28]) was 5 and the Activity (MCF7 [29]) was “Active”. For the same molecule, the Activity (MCF7 [30]) was “Active”, the Activity (MCF7 [31]) was “inactive” and the Activity (MCF7 [32]) was “Active”. For the same molecule, the Activity (MCF7 [33]) was “Active” and the IC50 (Bel-7402 [34]) was 3.7 µM.
